Earlier results in patent publication US20060160157A1, “Method, compositions and classification for tumor diagnostics and treatment” (priority 2005, published 2006).

Assays:
[1] = pH change 7.5 to 4.0
[2] = target: GRP-R (Homo sapiens, UniProt P30550); settings: radiolabeled bombesin as radioligand
GRP-R, sequence (P30550 whole entry, species assumed): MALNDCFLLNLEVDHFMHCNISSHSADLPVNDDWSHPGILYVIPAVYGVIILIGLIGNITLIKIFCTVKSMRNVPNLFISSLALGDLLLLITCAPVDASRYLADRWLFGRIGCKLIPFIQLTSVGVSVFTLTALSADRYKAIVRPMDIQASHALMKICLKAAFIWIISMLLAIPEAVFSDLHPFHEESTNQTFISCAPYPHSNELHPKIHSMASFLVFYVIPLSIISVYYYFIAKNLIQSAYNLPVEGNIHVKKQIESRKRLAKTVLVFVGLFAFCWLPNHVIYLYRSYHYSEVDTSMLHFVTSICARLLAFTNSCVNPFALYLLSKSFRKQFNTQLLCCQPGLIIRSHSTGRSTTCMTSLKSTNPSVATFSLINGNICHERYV

change in the kd rate constant (dissociation) [1]	GRP-R binding selectivity (rank order of affinity) [2]	Substance	change in the ka rate constant (association) [1]
1,600 times		growth hormone	1.7 times
	GRP >bombesin> neuromedin	neuromedin	
